Test results from ChEMBL document CHEMBL1921773, “Carbamates of 4'-demethyl-4-deoxypodophyllotoxin: synthesis, cytotoxicity and cell cycle effects” (Bioorg Med Chem Lett, 2011).

Experiments:
[1] = Octanol-water partition coefficient, log P of the compound; format: physicochemical
HeLa = test: Cytotoxicity against human HeLa cells assessed as growth inhibition after 48 hrs by CCK-8 assay; format: functional, cell-based
A549 [2] = test: Cytotoxicity against human A549 cells assessed as growth inhibition after 48 hrs by MTT assay; format: functional, cell-based; settings: A549, 48 h
HL-60 = test: Cytotoxicity against human HL60 cells assessed as growth inhibition after 48 hrs by CCK-8 assay; format: functional, cell-based; settings: HL-60, 48 h
SiHa = test: Cytotoxicity against human SiHa cells assessed as growth inhibition after 48 hrs by MTT assay; format: functional, cell-based
A549 [3] = test: Cell cycle arrest in human A549 cells assessed as accumulation of cells at G2/M phase at 0.4 uM by propidium iodide staining-based flow cytometry (reference value: 3.2%); format: functional; settings: TDE = time-dependent effect
A549 [4] = test: Cell cycle arrest in human A549 cells assessed as accumulation of cells at G2/M phase at 0.4 uM after 24 hrs by propidium iodide staining-based flow cytometry (reference value: 3.2%); format: functional
A549 [5] = test: Cell cycle arrest in human A549 cells assessed as accumulation of cells at S phase at 0.4 uM after 24 hrs by propidium iodide staining-based flow cytometry (reference value: 36.7%); format: functional
A549 [6] = test: Cell cycle arrest in human A549 cells assessed as accumulation of cells at G1 phase at 0.4 uM after 24 hrs by propidium iodide staining-based flow cytometry (reference value: 59.9%); format: functional
A549 [7] = test: Cell cycle arrest in human A549 cells assessed as accumulation of cells at G1 phase at 0.4 uM after 12 hrs by propidium iodide staining-based flow cytometry (reference value: 59.9%); format: functional
A549 [8] = test: Cell cycle arrest in human A549 cells assessed as accumulation of cells at G2/M phase at 0.4 uM after 12 hrs by propidium iodide staining-based flow cytometry (reference value: 3.2%); format: functional
A549 [9] = test: Cell cycle arrest in human A549 cells assessed as accumulation of cells at S phase at 0.4 uM after 12 hrs by propidium iodide staining-based flow cytometry (reference value: 36.7%); format: functional

| Compound | logP [1] | IC50 (HeLa) [µM] | IC50 (A549 [2]) [µM] | IC50 (HL-60) [µM] | IC50 (SiHa) [µM] | Activity (A549 [3]) | Activity (A549 [4]) [%] | Activity (A549 [5]) [%] | Activity (A549 [6]) [%] | Activity (A549 [7]) [%] | Activity (A549 [8]) [%] | Activity (A549 [9]) [%] |
| --- | --- | --- | --- | --- | --- | --- | --- | --- | --- | --- | --- | --- |
| COc1cc([C@@H]2c3cc4c(cc3C[C@H]3COC(=O)[C@@H]32)OCO4)cc(OC)c1OC(=O)N[C@H](C(N)=O)C(C)C | 0.84 | 3.83 | 1.49 | 1.03 | 2.89 | – | – | – | – | – | – | – |
| COc1cc([C@@H]2c3cc4c(cc3C[C@H]3COC(=O)[C@@H]32)OCO4)cc(OC)c1OC [DESOXYPODOPHYLLOTOXIN] | 3.16 | 1.98 | 1.38 | 0.47 | 6.01 | – | – | – | – | – | – | – |
| COc1cc([C@@H]2c3cc4c(cc3C[C@H]3COC(=O)[C@@H]32)OCO4)cc(OC)c1OC(=O)N[C@@H](Cc1ccccc1)C(N)=O | 1.35 | 1.72 | 3.41 | 0.94 | 1.07 | – | – | – | – | – | – | – |
| COc1cc([C@@H]2c3cc4c(cc3C[C@H]3COC(=O)[C@@H]32)OCO4)cc(OC)c1OC(=O)N[C@H](Cc1ccccc1)C(N)=O | 1.33 | 0.575 | 1.61 | 0.231 | 0.416 | – | – | – | – | – | – | – |
| COc1cc([C@@H]2c3cc4c(cc3C[C@H]3COC(=O)[C@@H]32)OCO4)cc(OC)c1OC(=O)N[C@@H](CC(C)C)C(N)=O | 1.26 | 0.703 | 9.93 | 0.67 | 0.877 | – | – | – | – | – | – | – |
| COc1cc([C@@H]2c3cc4c(cc3C[C@H]3COC(=O)[C@@H]32)OCO4)cc(OC)c1OC(=O)N[C@H](CCSC)C(N)=O | 0.26 | 0.528 | 0.887 | 0.0893 | 0.614 | tde | 58.1 | 30.7 | 11.2 | 22.6 | 27.7 | 49.7 |
| COc1cc([C@@H]2c3cc4c(cc3C[C@H]3COC(=O)[C@@H]32)OCO4)cc(OC)c1OC(=O)N[C@H](C(=O)NC1CCCC1)C(C)C | 2.57 | 20.3 | 1.91 | 1.03 | 14.6 | – | – | – | – | – | – | – |
| COc1cc([C@@H]2c3cc4c(cc3C[C@H]3COC(=O)[C@@H]32)OCO4)cc(OC)c1OC(=O)N[C@@H](Cc1ccccc1)C(=O)NC1CCCC1 | 2.06 | 3.07 | 2.69 | 0.988 | 6.87 | – | – | – | – | – | – | – |
| COc1cc([C@@H]2c3cc4c(cc3C[C@H]3COC(=O)[C@@H]32)OCO4)cc(OC)c1O [4'-DEMETHYLDEOXYPODOPHYLLOTOXIN] | 2.92 | 43 | 1.8 | 2.96 | 53.3 | – | – | – | – | – | – | – |
| COc1cc([C@@H]2c3cc4c(cc3C[C@H]3COC(=O)[C@@H]32)OCO4)cc(OC)c1OC(=O)N[C@@H](Cc1ccccc1)C(=O)NC1CC1 | 1.95 | 0.693 | 3.37 | 0.416 | 1.12 | – | – | – | – | – | – | – |
| COc1cc([C@@H]2c3cc4c(cc3[C@@H](O[C@@H]3O[C@@H]5CO[C@@H](C)O[C@H]5[C@H](O)[C@H]3O)[C@H]3COC(=O)[C@H]23)OCO4)cc(OC)c1O [ETOPOSIDE] | 0.69 | 2.76 | 24.9 | 2.85 | 40.4 | – | – | – | – | – | – | – |
| CC[C@H](C)[C@H](NC(=O)Oc1c(OC)cc([C@@H]2c3cc4c(cc3C[C@H]3COC(=O)[C@@H]32)OCO4)cc1OC)C(N)=O | 1.36 | 5.28 | 1.77 | 1.02 | 3.7 | – | – | – | – | – | – | – |
| COc1cc([C@@H]2c3cc4c(cc3C[C@H]3COC(=O)[C@@H]32)OCO4)cc(OC)c1OC(=O)N[C@H](C(=O)NC1CC1)C(C)C | 1.45 | 0.433 | 2.31 | 0.213 | 0.432 | – | – | – | – | – | – | – |
| COc1cc([C@@H]2c3cc4c(cc3C[C@H]3COC(=O)[C@@H]32)OCO4)cc(OC)c1OC(=O)N[C@@H](CCSC)C(N)=O | 0.28 | 2.03 | 0.86 | 0.711 | 4.32 | – | – | – | – | – | – | – |
| COc1cc([C@@H]2c3cc4c(cc3C[C@H]3COC(=O)[C@@H]32)OCO4)cc(OC)c1OC(=O)N[C@@H](C)C(N)=O | -0.09 | 0.743 | 4.23 | 0.397 | 0.696 | – | – | – | – | – | – | – |
